Reference: patent US3965109A, “Certain aryl amino pyridines” (priority 1971, dated 1976)

Experiments:
[1] = test system: Uncinula necator (vine); test: Fungicidal test against foliar disease D (foliage spray plus soil drench); assay type: in vivo; conditions: 10 days; for Amount of disease grading, disease D (Table 4): 100 ppm spray and drench
[2] = test system: Streptomyces scabies; test: Antibacterial agar test (B7); assay type: cell-based; conditions: 50 ppm; 5 days
[3] = test system: Puccinia recondita (wheat); test: Fungicidal test against foliar disease A (foliage spray plus soil drench); assay type: in vivo; conditions: 10 days; for Amount of disease grading, disease A (Table 4): 100 ppm spray and drench
[4] = test system: Erwinia carotovora; test: Antibacterial agar test (B4); assay type: cell-based; conditions: 50 ppm; 5 days
[5] = test system: Corynebacterium michiganense; test: Antibacterial agar test (B2); assay type: cell-based; conditions: 50 ppm; 5 days
Procedure: (§1) This Example illustrates the activity of compounds used as the active ingredients of compositions according to the invention against a variety of plant bacterial diseases and fungal post-harvest saprophytic diseases. In a test for such activity, 5 milligrams of the compound to be tested was dissolved or suspended in 10 ml. of acetone and enough of this solution or suspension was added to 18 ml. of nutrient agar (for the bacterial diseases) or 16 ml. of 2% malt agar (for the fungal diseases) to give a final concentration of 50 parts per million of the compound under test. A streptomycin preparation (2 ml. containing 100 units per ml.) was added to the malt agar to prevent bacterial contamination of the fungal tests.
(§2) The agar preparations were dried overnight in Petri dishes and inoculated the following morning with the bacterial or fungal diseases using a multipoint inoculator. The antibacterial activity was assessed after 5 days and the antifungal activity after 6 days. The results of the tests are set out in Table 16 (anti bacterial activity) and Table 17 (antifungal activity). The results are graded as in Example 1 above.

[6] = test system: Xanthomonas oryzae; assay type: cell-based; conditions: 50 ppm; 5 days
[7] = test system: Phytophthora infestans (tomato); assay type: in vivo; conditions: 3 days
[8] = test system: Agrobacterium tumifaciens; test: Antibacterial agar test (B1); assay type: cell-based; conditions: 50 ppm; 5 days
[9] = test system: Xanthomonas malvacearum; test: Antibacterial agar test (B3); assay type: cell-based; conditions: 50 ppm; 5 days
Procedure: as §1, §2

[10] = test system: Pseudomonas syringae; test: Antibacterial agar test (B6); assay type: cell-based; conditions: 50 ppm; 5 days
[11] = test system: Piricularia oryzae (rice); assay type: in vivo; conditions: 7 days; for Amount of disease grading, disease E (Table 4): 100 ppm spray and drench
[12] = test system: Plasmopara viticola (vine); test: Fungicidal test against foliar disease C (foliage spray plus soil drench); assay type: in vivo; conditions: 10 days; for Amount of disease grading, disease C (Table 4): 100 ppm spray and drench
[13] = test system: Phaedon cochleariae (mustard beetles); test: Pest toxicity test; assay type: in vivo; conditions: in vivo
[14] = test system: Aedes aegypti (mosquito adults); test: Pest toxicity test; assay type: in vivo; conditions: 0.01% by weight; plywood; 1 day
[15] = test system: Wheat; test: Herbicidal test, pre- and post-emergence; assay type: in vivo; conditions: 10 kg/ha; scale 0 to 3 (complete kill)
[16] = test system: Pieris brassicae (cabbage white caterpillars); test: Pest toxicity test; assay type: in vivo; conditions: 0.1% by weight, 2 days
[17] = test system: Aphis fabae; test: Pest toxicity test; assay type: in vivo; conditions: 0.1% by weight; broad bean; 2 days
[18] = test system: Lettuce; test: Herbicidal test, pre- and post-emergence; assay type: in vivo; conditions: 10 kg/ha; scale 0 to 3 (complete kill)
[19] = test system: Tetranychus telarius (red spider mites, eggs); test: Pest toxicity test; assay type: in vivo; conditions: 0.1% by weight; French bean; 3 days
[20] = test system: Tetranychus telarius (red spider mites, adults); test: Pest toxicity test; assay type: in vivo; conditions: 0.1% by weight; French bean; 3 days
[21] = test system: Aedes aegypti (mosquito larvae); test: Pest toxicity test; assay type: in vivo; conditions: 0.01% by weight; water; 1 day
[22] = test system: Tomato; test: Herbicidal test, pre- and post-emergence; assay type: in vivo; conditions: 10 kg/ha; scale 0 to 3 (complete kill)
[23] = test system: Plutella maculipennis (diamond back moth larvae); test: Pest toxicity test; assay type: in vivo; conditions: in vivo
[24] = test system: Musca domestica (houseflies); test: Pest toxicity test, contact test; assay type: in vivo; conditions: 0.1% by weight; milk/sugar; 2 days; flies sprayed directly
[25] = test system: Megoura viceae; test: Pest toxicity test; assay type: in vivo; conditions: 0.1% by weight; broad bean; 2 days
[26] = test system: Maize; test: Herbicidal test, pre- and post-emergence; assay type: in vivo; conditions: 10 kg/ha; scale 0 to 3 (complete kill)
[27] = 50 ppm spray + 200 ppm soil drench

## O=[N+]([O-])c1cc([N+](=O)[O-])c(Nc2c(Cl)c(Cl)nc(Cl)c2Cl)cc1F [Compound 35, 4(5-Fluoro-2,4-dinitroanilino)tetrachloropyridine]
[1]
  Amount of disease grading, disease D (Table 4): 0 (61 to 100)
[2]
  Antibacterial activity grading B7: 2 (6 to 25)
[3]
  Amount of disease grading, disease A (Table 4): 2 (6 to 25)
[4]
  Antibacterial activity grading B4: 0 (61 to 100)
[5]
  Antibacterial activity grading B2: 0 (61 to 100)
[6]
  Antibacterial activity grading B5: 1 (26 to 60)
[7]; 100 ppm spray and drench
  Amount of disease grading, disease B (Table 4): 3 (0 to 5)
[8]
  Antibacterial activity grading B1: 0 (61 to 100)
[9]
  Antibacterial activity grading B3: 0 (61 to 100)
[10]
  Antibacterial activity grading B6: 2 (6 to 25)
[11]
  Amount of disease grading, disease E (Table 4): 2 (6 to 25)
[12]
  Amount of disease grading, disease C (Table 4): 3 (0 to 5)

## O=[N+]([O-])c1cc([N+](=O)[O-])c(Nc2c(Cl)c(F)nc(F)c2Cl)cc1F [Compound 6, 3,5-Dichloro-2,6-difluoro-4(2,4-dinitro-5-fluoroanilino)pyridine]
[1]; [27]
  Amount of disease grading, disease D: 2 (6 to 25)
[2]
  Antibacterial activity grading B7: 1 (26 to 60)
[3]; [27]
  Amount of disease grading, disease A: 0 (61 to 100)
[4]
  Antibacterial activity grading B4: 1 (26 to 60)
[5]
  Antibacterial activity grading B2: 3 (0 to 5)
[6]
  Antibacterial activity grading B5: 2 (6 to 25)
[7]; [27]
  Amount of disease grading, disease B: 3 (0 to 5)
[8]
  Antibacterial activity grading B1: 3 (0 to 5)
[9]
  Antibacterial activity grading B3: 3 (0 to 5)
[10]
  Antibacterial activity grading B6: 2 (6 to 25)
[11]; [27]
  Amount of disease grading, disease E: 3 (0 to 5)
[12]; [27]
  Amount of disease grading, disease C: 3 (0 to 5)

## O=[N+]([O-])c1cc(Br)c(Nc2c(Cl)c(F)nc(F)c2Cl)c([N+](=O)[O-])c1 [Compound 40, 4(2-Bromo-4,6-dinitroanilino)-3,5-dichloro-2,6-difluoropyridine]
[1]
  Amount of disease grading, disease D (Table 4): 3 (0 to 5)
[2]
  Antibacterial activity grading B7: 2 (6 to 25)
[13]
  Mortality grading (kill): 2 (key: O represents less than 30% kill; 1 represents 30 - 49% kill; 2 represents 60 - 90% kill; 3 represents over 90% kill; C indicates a chemosterilant effect.; A indicates an antifeeding effect.)
[14]
  Mortality grading (kill): 0 (O represents less than 30% kill)
[3]
  Amount of disease grading, disease A (Table 4): 0 (61 to 100)
[15]
  Damage to plants, post-emergence: 0
  Damage to plants, pre-emergence: 1
[16]
  Mortality grading (kill): 0 (O represents less than 30% kill)
[4]
  Antibacterial activity grading B4: 1 (26 to 60)
[5]
  Antibacterial activity grading B2: 2 (6 to 25)
[17]
  Mortality grading (kill): 3 (3 represents over 90% kill)
[18]
  Damage to plants, post-emergence: 3
  Damage to plants, pre-emergence: 3
[6]
  Antibacterial activity grading B5: 2 (6 to 25)
[19]
  Mortality grading (kill): 3 (3 represents over 90% kill)
[20]
  Mortality grading (kill): 3 (3 represents over 90% kill)
[21]
  Mortality grading (kill): 3 (3 represents over 90% kill)
[22]
  Damage to plants, post-emergence: 1
  Damage to plants, pre-emergence: 3
[8]
  Antibacterial activity grading B1: 2 (6 to 25)
[9]
  Antibacterial activity grading B3: 3 (0 to 5)
[10]
  Antibacterial activity grading B6: 1 (26 to 60)
[11]
  Amount of disease grading, disease E (Table 4): 1 (26 to 60)
[23]
  Mortality grading (kill): 0 (key: O represents less than 30% kill; 1 represents 30 - 49% kill; 2 represents 60 - 90% kill; 3 represents over 90% kill; C indicates a chemosterilant effect.; A indicates an antifeeding effect.)
[24]
  Mortality grading (kill), contact test: 3 (3 represents over 90% kill)
[25]
  Mortality grading (kill): 3 (3 represents over 90% kill)
[12]
  Amount of disease grading, disease C (Table 4): 3 (0 to 5)
[26]
  Damage to plants, post-emergence: 0
  Damage to plants, pre-emergence: 1

## O=[N+]([O-])c1ccc(Nc2c(Cl)c(F)nc(Cl)c2Cl)c(C(F)(F)F)c1 [Compound 44, 2-Fluoro-(4-nitro-2-trifluoromethylanilino)3,5,6-trichlorpyridine]
[1]
  Amount of disease grading, disease D (Table 4): 3 (0 to 5)
[2]
  Antibacterial activity grading B7: 3 (0 to 5)
[13]
  Mortality grading (kill): 0 (key: O represents less than 30% kill; 1 represents 30 - 49% kill; 2 represents 60 - 90% kill; 3 represents over 90% kill; C indicates a chemosterilant effect.; A indicates an antifeeding effect.)
[14]
  Mortality grading (kill): 0 (O represents less than 30% kill)
[3]
  Amount of disease grading, disease A (Table 4): 2 (6 to 25)
[15]
  Damage to plants, post-emergence: 0
  Damage to plants, pre-emergence: 3
[16]
  Mortality grading (kill): 3 (3 represents over 90% kill)
[4]
  Antibacterial activity grading B4: 3 (0 to 5)
[5]
  Antibacterial activity grading B2: 3 (0 to 5)
[17]
  Mortality grading (kill): 0 (O represents less than 30% kill)
[18]
  Damage to plants, post-emergence: 3
  Damage to plants, pre-emergence: 2
[6]
  Antibacterial activity grading B5: 3 (0 to 5)
[19]
  Mortality grading (kill): 3 (3 represents over 90% kill)
[20]
  Mortality grading (kill): 3 (3 represents over 90% kill)
[21]
  Mortality grading (kill): 3 (3 represents over 90% kill)
[22]
  Damage to plants, post-emergence: 3
  Damage to plants, pre-emergence: 3
[8]
  Antibacterial activity grading B1: 3 (0 to 5)
[9]
  Antibacterial activity grading B3: 3 (0 to 5)
[10]
  Antibacterial activity grading B6: 3 (0 to 5)
[11]
  Amount of disease grading, disease E (Table 4): 0 (61 to 100)
[23]
  Mortality grading (kill): 0 (key: O represents less than 30% kill; 1 represents 30 - 49% kill; 2 represents 60 - 90% kill; 3 represents over 90% kill; C indicates a chemosterilant effect.; A indicates an antifeeding effect.)
[24]
  Mortality grading (kill), contact test: 3 (3 represents over 90% kill)
[25]
  Mortality grading (kill): 0 (O represents less than 30% kill)
[12]
  Amount of disease grading, disease C (Table 4): 3 (0 to 5)
[26]
  Damage to plants, post-emergence: 1
  Damage to plants, pre-emergence: 0
